Results on eleven molecules are retold here after patent US3943154A, “Acylamides of beta-cyano-ethenesulfonyl substituted aminoarenes” (Sanitized Incorporated, priority 1973, dated 1976).

≈ marks a conversion by molar mass, not a printed value. Read-outs that look alike come from different tables or passages of the source.

What all share (format): cell-based
Assay [1] deals with Salmonella typhosa ATCC 6539. The experiment in a line: button assay, antibacterial activity. As to conditions: Salmonella enterica, read-out: Antibacterial Activity S.typhosa, minimum inhibitory concentration. As for the experimental part: (§1) In the test program, the minimum inhibitory concentrations of the respective test compounds against various Gram positive and Gram negative bacteria were determined, employing the "button assay" method. The test organisms utilized were standard cultures of Staphylococcus aureus ATCC 6538 DR, a penicillin resistant Gram positive bacterium; Bacillus subtilis ATCC 9525, a spore-forming Gram positive bacillus; and Salmonella typhosa ATCC 6539, a Gram negative bacterium.
(§2) The highest concentration was ordinarily 1000 ppm (parts per million) [0.1%], and dilutions were made in suitable steps down to 1 ppm. Penicillin test buttons of filter paper having a diameter of 13 mm (socalled "Peniassay" buttons) were added to each solution within a test tube and left submerged for five minutes. They were then removed and left to dry on paper towels under sterile conditions. A laminar flow sterile cabinet equipped with ultraviolet lamps operating under positive air pressure was utilized for this purpose.
(§3) An 18-24 hour old nutrient broth culture (standard 1.5% nutrient agar) prepared in conventional manner from a slant and having passed through at least three consecutive daily transfers was used for inoculation. Melted and cooled sterile agar (45° C) was inoculated with the respective broth cultures by addition of 20 ml broth per liter of agar. The agar was then dispensed into Petri dishes (20 ml per plate) under sterile conditions and allowed to harden.
(§4) The test buttons were placed on the surface of the hardened agar and the plates incubated for 24 hours at 37° C. Where, on inspection, a clear zone of inhibition appeared around the button, inhibition of growth was presumed. Where growth touched the button there was no inhibition. For each of the test compounds, the lowest concentration showing a clear zone is reported as the inhibitory concentration in the following table. […]

In assay [2] the test system is Staphylococcus aureus ATCC 6538 DR. The assay is described as follows: button assay, antibacterial activity. To be noted: Staphylococcus aureus, ATCC6538, 24 h, read-out: Antibacterial Activity S.aureus, minimum inhibitory concentration. As for the experimental part: as §1
as §2, with “In the tests the respective compounds were dissolved in a suitable solvent, usually acetone or dimethylsulfoxide, to give solutions with known concentrations of active material. The highest” for “The highest”
as §3, §4

For assay [3], the system named is Bacillus subtilis ATCC 9525. The assay is described as follows: button assay, antibacterial activity. To be noted: Bacillus subtilis, ATCC9525, lowest concentration showing a clear zone of inhibition, 24 hours at 37° C, read-out: Antibacterial Activity B.subtilis, minimum inhibitory concentration. As for the experimental part: as §1
as §2, with “In the tests the respective compounds were dissolved in a suitable solvent, usually acetone or dimethylsulfoxide, to give solutions with known concentrations of active material. The highest” for “The highest”
as §3
The test buttons were placed on the surface of the hardened agar and the plates incubated for 24 hours at 37° C. Where, on inspection, a clear zone of inhibition appeared around the button, inhibition of growth was presumed. Where growth touched the button there was no inhibition. For each of the test compounds, the lowest concentration showing a clear zone is reported as the inhibitory concentration in the following table.
(§5) The button assay and agar incorporation tests were also utilized to determine the corresponding inhibitory concentrations of various control materials, viz., the following well known commercial antimicrobials and fungicides: hexachlorophene, tribromosalicylanilide, trichlorocarbanilide,Captan (N-(trichloromethylthio)4cyclohexene-1,2-dicarboximide) and Zineb (zinc ethylenebis[dithiocarbamate]). The minimum inhibitory concentration of each of the various control materials against the respective organisms is indicated in Table IV below: […]

The test system of assay [4] is Aspergillus niger ATCC 6257. The assay is described as follows: agar incorporation test, antifungal activity. As to conditions: Aspergillus niger, ATCC6257, 96 h, lowest concentration showing no growth or sporulation, four days at 28° C, read-out: Antifungal Activity A. niger, minimum inhibitory concentration. As for the experimental part:
The anti-fungal activity of the test compounds was determined employing the "agar incorporation" technique, utilizing spores from Aspergillus niger ATCC 6257 as a representative organism. Test solutions were prepared as described above in acetone or dimethylsulfoxide. A source of carbon agar such as Mycophil Agar was used. The agar was melted and cooled and placed in a constant temperature water bath at 45° C + 3° C. About 13-14 ml of the agar was then poured into a sterile Petri dish, the required amount of test solution to give the desired concentration immediately added thereto, and the dish rotated and swirled by hand to obtain a uniform mixture before the agar hardened.
The hardened plates were inoculated with the test organism by fishing spores from a 7-14 day old slant with the inocculating needle and spotting the spores on the plates, usually in several places. The inoculated plates were incubated for four days in an incubator maintained at 28° C +2° C and with a relative humidity of 95%+.
The lowest concentration of each test compound showing no growth or sporulation of the test organism was taken as the minimum inhibitory concentration and is reported in the following tabulation.
as §5

[5] abbreviates: button assay, lowest concentration showing a clear zone of inhibition, 24 hours at 37° C.

Take `Cc1ccccc1S(=O)(=O)Nc1ccc(S(=O)(=O)C=CC#N)cc1` [Example 16, 3-[4-(2-METHYLBENZENESULFONAMIDO)BENZENESULFONYL]ACRYLONITRILE]: the MIC was 20 µg/mL (≈ 55.2 µM) in assay [1] (24 h), 20 µg/mL (≈ 55.2 µM) in assay [2], 20 µg/mL (≈ 55.2 µM) in assay [3] and above 1000 µg/mL in assay [4].
For `N#CC=CS(=O)(=O)c1ccc(NSc2ccc([N+](=O)[O-])cc2)cc1` [Example 43, 3-[4-(4-nitrobenzenesulfenamido)benzenesulfonyl]acrylonitrile], the MIC in assay [1] (24 h) was found to be 10 µg/mL (≈ 27.7 µM); in assay [2] it was 5 µg/mL (≈ 13.8 µM); in assay [3], 5 µg/mL (≈ 13.8 µM); in assay [4], 300 µg/mL (≈ 830 µM).
Regarding `CC(C)c1cc(C(C)C)c(S(=O)(=O)Nc2ccc(S(=O)(=O)C=CC#N)cc2)c(C(C)C)c1` [Example 19, 3-[4-(2,4,6-tri-isopropylbenzenesulfonamido)benzenesulfonyl]acrylonitrile], the MIC in assay [1] (24 h) was 1000 µg/mL (≈ 2110 µM); in assay [2] it was 1000 µg/mL (≈ 2110 µM); in assay [3], 1000 µg/mL (≈ 2110 µM); in assay [4], above 1000 µg/mL.
With `CS(=O)(=O)Nc1ccc(S(=O)(=O)C=CC#N)cc1` [Example 1, 3-(4-methanesulfonylamidobenzenesulfonyl)acrylonitrile], the MIC was 1000 µg/mL (≈ 3490 µM) in assay [1] (24 h), 300 µg/mL (≈ 1050 µM) in assay [2], 100 µg/mL (≈ 349 µM) in assay [3] and above 1000 µg/mL in assay [4].
The corresponding values for `COc1ccc(S(=O)(=O)Nc2ccc(S(=O)(=O)C=CC#N)cc2)cc1OC` [Example 29.1, 3-[4-(3,4-dimethoxybenzenesulfonamido)benzenesulfonyl]acrylonitrile] are 10 µg/mL (≈ 24.5 µM), 20 µg/mL (≈ 49 µM), 10 µg/mL (≈ 24.5 µM) and 300 µg/mL (≈ 734 µM).
In the case of `N#CC=CS(=O)(=O)c1ccc(NS(=O)(=O)c2cccc(S(=O)(=O)Nc3ccc(S(=O)(=O)C=CC#N)cc3)c2)cc1` [Example 33, N.N'-bis-[4-(2-cyanoethenesulfonyl)phenyl]-1,3-phenylenesulfonamide], the MIC in assay [1] (24 h) was 100 µg/mL (≈ 162 µM); in assay [2], 300 µg/mL (≈ 485 µM); in assay [3], 10000 µg/mL (≈ 16200 µM); in assay [4], above 1000 µg/mL.
With `N#CC=CS(=O)(=O)c1ccc(NS(=O)(=O)c2ccc(Oc3ccc(S(=O)(=O)Nc4ccc(S(=O)(=O)C=CC#N)cc4)cc3)cc2)cc1` [Example 34, 4,4'-N,N'-bis[4-(2-cyanoethenesulfonyl)-phenylsulfamoyl]diphenyl ether], the MIC in assay [1] (24 h) is 50 µg/mL (≈ 70.3 µM); in assay [2], 100 µg/mL (≈ 141 µM); in assay [3], 100 µg/mL (≈ 141 µM); in assay [4] it was above 1000 µg/mL.
`N#CC=CS(=O)(=O)c1ccc(NS(=O)(=O)c2ccc([N+](=O)[O-])cc2[N+](=O)[O-])cc1` [Example 23.1, 3-[4-(2,4-dinitrobenzenesulfonamido)benzenesulfonyl]acrylonitrile]: the MIC was determined as 50 µg/mL (≈ 114 µM) in assay [1] (setting [5]), 5 µg/mL (≈ 11.4 µM) in assay [2], 50 µg/mL (≈ 114 µM) in assay [3] and 100 µg/mL (≈ 228 µM) in assay [4].
Consider `CCOC(=O)c1ccc(S(=O)(=O)Nc2ccc(S(=O)(=O)C=CC#N)cc2)cc1` [Example 27, 3-[4-(4-[…])BENZENESULFONYL]ACRYLONITRILE], for which the MIC in assay [1] (24 h) came to 10 µg/mL (≈ 23.8 µM); in assay [2], 10 µg/mL (≈ 23.8 µM); in assay [3], 20 µg/mL (≈ 47.6 µM); in assay [4] it was 100 µg/mL (≈ 238 µM).
As to `COc1ccc(OC)c(S(=O)(=O)Nc2ccc(S(=O)(=O)C=CC#N)cc2)c1` [Example 29.2, 3-[4-(2,5-dimethoxybenzenesulfonamido)benzenesulfonyl]acrylonitrile], the MIC in assay [1] (24 h) was 50 µg/mL (≈ 122 µM); in assay [2] it was 20 µg/mL (≈ 49 µM); in assay [3], 20 µg/mL (≈ 49 µM); in assay [4] it was 1000 µg/mL (≈ 2450 µM).
Turning to `N#CC=CS(=O)(=O)c1ccc(NP(=S)(Nc2ccc(S(=O)(=O)C=CC#N)cc2)c2ccccc2)cc1` [Example 59, PHENYL-DI-[4-(2-CYANOETHENESULFONYL)ANILIDO]PHOSPHINE SULFIDE], the MIC in assay [1] (setting [5]) came out at 50 µg/mL (≈ 90.2 µM); in assay [2], 50 µg/mL (≈ 90.2 µM); in assay [3], 50 µg/mL (≈ 90.2 µM); in assay [4], 500 µg/mL (≈ 902 µM).
